The assay deals with T1, NMDA receptor composed of four subunits including 2 sets of heterodimers of NR1 and NR2B (Homo sapiens, UniProt Q13224).
T1 construct: host or cells: HEK293 (tetracycline-induced expression)
T1 sequence (Q13224 27-1484, other chains not shown): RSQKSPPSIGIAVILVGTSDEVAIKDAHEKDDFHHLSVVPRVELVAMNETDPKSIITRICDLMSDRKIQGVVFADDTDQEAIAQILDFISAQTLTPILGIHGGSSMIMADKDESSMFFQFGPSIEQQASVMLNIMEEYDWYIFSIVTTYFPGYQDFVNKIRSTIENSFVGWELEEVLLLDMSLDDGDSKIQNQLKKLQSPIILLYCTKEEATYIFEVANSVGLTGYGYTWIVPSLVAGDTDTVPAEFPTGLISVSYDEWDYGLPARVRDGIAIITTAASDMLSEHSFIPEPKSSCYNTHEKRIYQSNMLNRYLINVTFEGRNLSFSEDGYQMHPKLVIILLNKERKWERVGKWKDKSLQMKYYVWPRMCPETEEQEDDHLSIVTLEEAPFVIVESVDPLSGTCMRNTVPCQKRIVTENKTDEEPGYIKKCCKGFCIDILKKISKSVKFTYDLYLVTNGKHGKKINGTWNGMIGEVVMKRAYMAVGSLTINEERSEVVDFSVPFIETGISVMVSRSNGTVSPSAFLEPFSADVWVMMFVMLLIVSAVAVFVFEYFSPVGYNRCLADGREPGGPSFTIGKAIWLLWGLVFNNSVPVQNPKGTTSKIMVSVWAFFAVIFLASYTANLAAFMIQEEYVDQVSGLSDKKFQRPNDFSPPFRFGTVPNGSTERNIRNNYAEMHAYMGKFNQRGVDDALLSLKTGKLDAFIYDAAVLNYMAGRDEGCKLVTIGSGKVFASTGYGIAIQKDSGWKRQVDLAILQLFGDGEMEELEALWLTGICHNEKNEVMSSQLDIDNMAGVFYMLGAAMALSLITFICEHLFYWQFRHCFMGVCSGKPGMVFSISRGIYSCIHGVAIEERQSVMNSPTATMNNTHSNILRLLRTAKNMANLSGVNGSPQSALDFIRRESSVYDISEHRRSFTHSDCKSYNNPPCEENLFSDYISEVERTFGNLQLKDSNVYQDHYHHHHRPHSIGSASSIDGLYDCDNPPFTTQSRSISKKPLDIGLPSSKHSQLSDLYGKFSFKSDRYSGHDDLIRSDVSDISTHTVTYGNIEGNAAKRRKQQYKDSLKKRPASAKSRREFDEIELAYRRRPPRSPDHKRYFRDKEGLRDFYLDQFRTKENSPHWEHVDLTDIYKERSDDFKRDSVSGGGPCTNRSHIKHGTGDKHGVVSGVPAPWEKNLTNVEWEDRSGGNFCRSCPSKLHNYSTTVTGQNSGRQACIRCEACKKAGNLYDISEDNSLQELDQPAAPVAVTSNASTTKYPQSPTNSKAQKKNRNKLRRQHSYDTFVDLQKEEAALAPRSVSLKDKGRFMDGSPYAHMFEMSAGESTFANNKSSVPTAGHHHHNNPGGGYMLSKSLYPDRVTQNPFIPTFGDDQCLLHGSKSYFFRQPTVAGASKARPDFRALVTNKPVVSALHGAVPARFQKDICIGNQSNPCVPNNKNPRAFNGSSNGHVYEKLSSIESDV
The assay is described as follows: NR2B Ca2+ influx assay (FLIPR, Fluo-4) in HEK293 cells expressing human GRIN1 and GRIN2B. The conditions noted are these: HEK293, 10 μM final compound concentration, glutamic acid/glycine-induced Ca2+ influx, read-out: inhibitory rate (10 μM compound concentration). The assay is classed as cell-based. The essentials:
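Tetracycline-induced (2 h) HEK293 cells expressing human GRIN1/GRIN2B, Fluo-4-loaded, were preincubated 15 min at room temperature with compound at 10 μM final. FLIPR recorded Ca2+ influx every 3 s for 5 min after glutamate/glycine addition (30 μM in added buffer); inhibition from cumulative fluorescence relative to agonist-free wells.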
As for `COc1ccc2nc(C)n(C)c2c1CNC(=O)c1cc(F)c(C(F)F)c(F)c1` [Example 240, 4-(difluoromethyl)-3,5-difluoro-N-((6-methoxy-1,2-dimethyl-1H-benzimidazol-7-yl)methyl)benzamide], the inhibition at 10 µM came to 53%. `COc1ccc2nc(C)n(C)c2c1CNC(=O)c1ccc(C(F)F)cc1` [Example 241, 4-(difluoromethyl)-N-((6-methoxy-1,2-dimethyl-lH-benzimidazol-7-yl)methyl)benzamide]: the inhibition at 10 µM came to 70%. Take `COc1ccc2nc(C)n(C)c2c1CNC(=O)c1ccc(C(F)F)c(F)c1` [Example 242, 4-(difluoromethyl)-3-fluoro-N-((6-methoxy-1,2-dimethyl-lH-benzimidazol-7-yl)methyl)benzamide]: the inhibition at 10 µM is 69%.

With `COc1ccc(C(=O)NCc2c(OC)ccc3nc(C)n(C)c23)cc1F` [Example 243, 3-fluoro-4-methoxy-N-((6-methoxy-1,2-dimethyl-lH-benzimidazol-7-yl)methyl)benzamide], the inhibition at 10 µM was 69%. As to `COc1ccc2nc(C)n(C)c2c1CNC(=O)c1ccc(OC(F)F)c(Cl)c1` [Example 244, 3-chloro-4-(difluoromethoxy)-N-((6-methoxy-1,2-dimethyl-lH-benzimidazol-7-yl)methyl)benzamide], the inhibition at 10 µM worked out at 87%.

Regarding `COc1ccc2nc(C)n(C)c2c1CNC(=O)c1ccc(OC(F)F)cc1` [Example 245, 4-(difluoromethoxy)-N-((6-methoxy-1,2-dimethyl-1H-benzimidazol-7-yl)methyl)benzamide], the inhibition at 10 µM was 81%. `COc1ccc2nc(C)n(C)c2c1CNC(=O)c1cc(F)c(OC(F)F)c(F)c1` [Example 246, 4-(difluoromethoxy)-3,5-difluoro-N-((6-methoxy-1,2-dimethyl-1H-benzimidazol-7-y1)methyl)benzamide]: the inhibition at 10 µM is 87%. As to `COc1ccc2nc(C)n(C)c2c1CNC(=O)c1ccc(F)c(Cl)c1` [Example 247, 3-chloro-4-fluoro-N-((6-methoxy-1,2-dimethyl-1H-benzimidazol-7-yl)methyl)benzamide], the inhibition at 10 µM was found to be 71%.

As to `COc1ccc2nc(C)n(C)c2c1CNC(=O)c1ccc(Cl)c(F)c1` [Example 248, 4-chloro-3-fluoro-N-((6-methoxy-1,2-dimethyl-1H-benzimidazol-7-yl)methyl)benzamide], the inhibition at 10 µM turned out to be 64%. Consider `COc1ccc2nc(C)n(C)c2c1CNC(=O)c1ccc(Cl)cc1` [Example 249, 4-chloro-N-((6-methoxy-1,2-dimethyl-1H-benzimidazol-7-yl)methyl)benzamide], for which the inhibition at 10 µM came to 57%. Next, `COc1ccc2nc(C)n(C)c2c1CNC(=O)c1ccc(C(F)F)c(Cl)c1` [Example 250]: 58%; `COc1ccc2nc(C)n(C)c2c1CNC(=O)c1cnc(OC(F)F)c(F)c1` [Example 251, 6-(difluoromethoxy)-5-fluoro-N-((6-methoxy-1,2-dimethyl-1H-benzimidazol-7-yl)methyl)nicotinamide]: 76%.

Consider `COc1ccc2nc(C)n(C)c2c1CNC(=O)c1ccc(OC(F)(F)F)cc1` [Example 252, N-((6-methoxy-l,2-dimethyl-1H-benzimidazol-7-yl)methyl)-4-(trifluoromethoxy)-benzamide], for which the inhibition at 10 µM was 88%. In the case of `COc1ccc2nc(C)n(C)c2c1CNC(=O)c1ccc(OC(F)F)c(F)c1` [Example 253, 4-(difluoromethoxy)-3-fluoro-N-((6-methoxy-1,2-dimethyl-1H-benzimidazol-7-yl)methyl)benzamide] it was 84%; in that of `COc1ccc2nc(C)n(C)c2c1CNC(=O)c1ccc(OC(F)F)nc1` [Example 254, 6-(difluoromethoxy)-N-((6-methoxy-1,2-dimethyl-lH-benzimidazol-7-yl)methyl)nicotinamide], 69%. In the case of `COc1ccc2ncn(C)c2c1CNC(=O)Nc1ccccc1` [Example 255, 1-((6-methoxy-1-methyl-1H-benzimidazol-7-yl)methyl)-3-phenylurea], the inhibition at 10 µM is 67%. In the case of `COc1ccc2ncn(C)c2c1CNC(=O)Nc1ccc(C)cc1` [Example 256, 1-((6-methoxy-1-methyl-1H-benzimidazol-7-yl)methyl)-3-(4-methylphenyl)urea] it was 90%; in that of `COc1ccc2ncn(C)c2c1CNC(=O)Nc1ccc(Cl)cc1` [Example 257, 1-(4-chlorophenyl)-3-((6-methoxy-1-methyl-1H-benzimidazol-7-yl)methyl)urea], 90%; in that of `COc1ccc2ncn(C)c2c1CNC(=O)Nc1ccc(F)c(F)c1` [Example 258, 1-(3,4-difluorophenyl)-3-((6-methoxy-1-methyl-1H-benzimidazol-7-yl)methyl)urea], 85%.

With `COc1ccc(NC(=O)NCc2c(OC)ccc3ncn(C)c23)c(F)c1F` [Example 259, 1-(2,3-difluoro-4-methoxyphenyl)-3-((6-methoxy-1-methyl-1H-benzimidazol-7-yl)methyl)urea], the inhibition at 10 µM came to 87%. Regarding `COc1ccc2ncn(C)c2c1CNC(=O)Nc1ccc(C(F)(F)F)cc1F` [Example 260, 1-(2-fluoro-4-(trifluoromethyl)-phenyl)-3-((6-methoxy-1-methyl-1H-benzimidazol-7-yl)methyl)urea], the inhibition at 10 µM came to 92%. Next, `COc1ccc2ncn(C)c2c1CNC(=O)Nc1ccc(C(F)(F)F)c(F)c1` [Example 261, 1-(3-fluoro-4-(trifluoromethyl)-phenyl)-3-{(6-methoxy-1-methyl-1H-benzimidazol-7-yl)methyl)urea]: 92%. In the case of `COc1ccc2ncn(C)c2c1CNC(=O)Nc1ccc(C(F)(F)F)cc1` [Example 262, 1-((6-methoxy-1-methyl-1H-benzimidazol-7-yl)methyl)-3-(4-(trifluoromethyl)-phenyl)urea] it was 91%; in that of `Cc1ccc2[nH]nnc2c1CNC(=O)c1ccc(OC(F)F)c(F)c1` [Example 263, 4-(difluoromethoxy)-3-fluoro-N-((5-methyl-1H-benzotriazol-4-yl)methyl)benzamide], 98%.

In the case of `COc1ccc(C(=O)NCc2c(C)ccc3[nH]nnc23)cc1` [Example 264, 4-methoxy-N-((5-methyl-1H-benzotriazol-4-yl)methyl)benzamide], the inhibition at 10 µM was 83%. With `Cc1ccc2[nH]nnc2c1CNC(=O)c1ccc(OC(F)F)cc1` [Example 265, 4-(difluoromethoxy)-N-((5-methyl-1H-benzotriazol-4-yl)methyl)benzamide], the inhibition at 10 µM worked out at 97%. Next, `COc1ccc(NC(=O)NCc2c(OC)ccc3ncn(C)c23)cc1` [Example 266, 1-((6-methoxy-1-methyl-lH-benzimidazol-7-yl)methyl)-3-(4-methoxyphenyl)urea]: 58%; `COc1ccc2ncn(C)c2c1CNC(=O)Nc1ccc(F)c(C(F)(F)F)c1` [Example 267, 1-(4-fluoro-3-(trifluoromethyl)-phenyl)-3-((6-methoxy-1-methyl-lH-benzimidazol-7-yl)methyl)urea]: 74%; `Cc1ccc2[nH]nnc2c1CNC(=O)c1cnc(OC(F)F)c(F)c1` [Example 268, 6-(difluoromethoxy)-5-fluoro-N-((5-methyl-1H-benzotriazol-4-y1)methyl)nicotinamide]: 97%. In the case of `Cc1n[nH]c2cccc(CNC(=O)c3ccc(OC(F)(F)F)c(F)c3)c12` [Example 269, 3-fluoro-N-((3-methyl-1H-indazol-4-yl)methyl)-4-(trifluoromethoxy)-benzamide] it was 87%; in that of `COc1c(F)cc(C(=O)NCc2cccc3[nH]nc(C)c23)cc1F` [Example 270, 3,5-difluoro-4-methoxy-N-((3-methyl-1H-indazol-4-yl)methyl)benzamide], 67%; in that of `Cc1n[nH]c2cccc(CNC(=O)c3cnc(OC(F)F)c(F)c3)c12` [Example 271, 6-(difluoromethoxy)-5-fluoro-N-((3-methyl-1H-indazol-4-yl)methyl)nicotinamide], 82%. On to `O=C(NCc1cccc2[nH]nc(Br)c12)c1ccc(OC(F)(F)F)c(F)c1` [Example 272, N-[(3-bromo-1H-indazol-4-yl)methyl]-3-fluoro-4-(trifluoromethoxy)-benzamide], for which the inhibition at 10 µM was found to be 59%. Next, `O=C(NCc1c(F)ccc2[nH]ncc12)c1ccc(OC(F)(F)F)cc1` [Example 273, N-[(5-fluoro-1H-indazol-4-yl)methyl]-4-(trifluoromethoxy)-benzamide]: 93%. Next, `Cn1nnc2cccc(CNC(=O)c3ccc(OC(F)(F)F)c(F)c3)c21` [Example 274, 3-fluoro-N-[(1-methyl-1H-benzotriazol-7-yl)methyl]-4-(trifluoromethoxy)-benzamide]: 93%; `Cn1nnc2cccc(CNC(=O)c3cnc(OC(F)F)c(F)c3)c21` [Example 275, 6-(difluoromethoxy)-5-fluoro-N-[(1-methyl-1H-benzotriazol-7-yl)methyl]pyridine-3-carboxamide]: 82%. In the case of `COc1ccc2ncn(C)c2c1CNC(=O)c1ccc(OC(F)F)nc1` [Example 276, 6-(difluoromethoxy)-N-[(6-methoxy-l-methyl-1H-benzimidazol-7-yl)methyl]pyridine-3-carboxamide] it was 88%. Regarding `COc1ccc2ncn(C)c2c1CNC(=O)c1ccc(OC(F)F)cc1F` [Example 277, 4-(difluoromethoxy)-2-fluoro-N-[(6-methoxy-1-methyl-1H-benzimidazol-7-yl)methyl]benzamide], the inhibition at 10 µM was 63%.

Source of the values: patent US11230541B2, “Heterocyclic compound” (Takeda Pharmaceutical Company Limited, priority 2017, dated 2022).
